The text below walks through data of article PMC11809919, “Quinoxaline-based anti-schistosomal compounds have potent anti-plasmodial activity” (PLOS Pathogens, 2025).

The subject of data set [1] is Dd2-Polδ clones C22-1.1 and C22-2.1. Nature of the data set: Dose-response assay on compound 22-selected clones (cross-resistance). It is filed as cell-based, Plasmodium falciparum. How it is done: Resistance selections were performed using a mutator parasite line Dd2-Polδ with an elevated mutation rate. Three independent flasks with either 1×10^8 or 1×10^9 parasites each were treated with 5×IC50, and parasite death was monitored by microscopy (Giemsa staining). […] After eight days, compounds were removed from the media and the media was changed on alternate days. […] For recrudescent cultures, compound susceptibility was determined by dose-response assays. Parasite clones were obtained by limiting dilution and harvested for genomic DNA extraction, followed by whole-genome sequencing.
(§1) Compound dose-response assays were performed in flat-bottom 96-well plates. Tightly synchronized ring-stage parasites were diluted to 1% parasitemia at 2% hematocrit, and incubated with a two-fold serial dilution of compounds in complete medium. Untreated parasites or uninfected RBCs were included in the assay plate as controls. Parasite growth was assessed after 72 h by lysing parasites using 2× lysis buffer consisting of 10 mM Tris-HCl, 5 mM EDTA, 0.1% w/v saponin, and 1% v/v Triton X-100, supplemented with 2× SYBR Green I (Molecular Probes). The fluorescence was measured using a FluorStar Omega v5.11 plate reader. IC50 analysis was performed using GraphPad Prism v9, and statistical significance was determined by a two-sided Mann-Whitney U test. All assays were performed in technical duplicate with at least three biological replicates, as noted in the figure legends.

The subject of a further data set is P. falciparum 3D7. Nature of the data set: Compound dose-response assay (72 h, SYBR Green I), 3D7. It is filed as cell-based, Plasmodium falciparum. The following applies: for Change of anti-plasmodial activity relative to compound 22: 3D7 and Dd2; for Selectivity index HepG2/3D7: HepG2 72 h CC50 / Pf 3D7 IC50; for IC50: 72 h, asexual blood stage. How it is done: (§2) P. falciparum parasites were cultured at 3% hematocrit in RPMI 1640 (Gibco) medium consisting of 0.5% Albumax II (Gibco), 25 mM HEPES (Sigma), 0.21% sodium bicarbonate, 1x GlutaMAX (Gibco), 25 μg/mL gentamicin (Gibco). A tri-gas mixture (1% O2, 3% CO2, and 96% N2) was used for parasite cultures. Parasites were synchronized using a sorbitol and Percoll density gradient method. The following parasite strains were used: 3D7, Dd2 (MR4, MRA-156, T. Wellems), GB4 (MR4, MRA-925, T. Wellems), UG659 (P. Rosenthal), Tanzania (MR4, MRA-1169, Michal Fried), Cam/PH0212C (R. Fairhurst), and Cam3.II/ PH0306-C (R. Fairhurst). Transfection was performed using ring-stage parasites (5–8% parasitemia) using a Gene Pulser Xcell (Biorad) electroporator.
as §1

The subject of the next data set is P. falciparum Dd2. Nature of the data set: Compound dose-response assay (72 h, SYBR Green I), Dd2. The format is cell-based, Plasmodium falciparum. The following applies: for Selectivity index HepG2/Dd2: HepG2 72 h CC50 / Pf Dd2 IC50; for IC50: Plasmodium falciparum, DD2, 72 h, 72 h, asexual blood stage. The procedure:
as §2, §1

For another data set, the system named is HepG2 cells. The arrangement: method as in Padalino et al. [13]. The following applies: ref Padalino et al. [13], cited from earlier work.
The next data set deals with S. mansoni schistosomula. The arrangement: method as in Padalino et al. [13]. The following applies: ref Padalino et al. [13], cited from earlier work.
[2] abbreviates: Plasmodium falciparum, 3D7, 72 h.
[3] abbreviates: HepG2, 24 h, read-out: 24 h CC50.
[4] abbreviates: HepG2, 72 h, read-out: 72 h CC50.
The mark [5] stands for this setting: 72 h, read-out: 72 h -phenotype EC50.
Setting [6] is: average of phenotype and motility, read-out: Average EC50.

Like-named read-outs stand apart in the source and are kept apart here.

Turning to `CNC(=O)CNc1cnc2ccc(-c3ccc(OC)c(OC)c3)cc2n1` [BQR695, 2-[[7-(3,4-dimethoxyphenyl)quinoxalin-2-yl]amino]-N-methylacetamide, reference compound], the “Shift in IC50 in compound 22-selected clones versus parental Dd2-Polδ” value in data set [1] was “no cross resistance”.
As to `CC(=O)Nc1ccc2nc(Nc3ccc(Cl)c(Cl)c3)c(Nc3ccc(Cl)c(Cl)c3)nc2c1` [Compound 22c], the “Change of anti-plasmodial activity relative to compound 22” value in the data set with P. falciparum 3D7 is “greatly diminished activity”. For the same compound, the “Selectivity index HepG2/3D7” value with P. falciparum 3D7 is recorded as 58.1. Moreover, the IC50 with P. falciparum 3D7 (setting [2]) is 79 nM; with P. falciparum Dd2, 181 nM. For the same compound, the “Selectivity index HepG2/Dd2” value with P. falciparum Dd2 is 25.4. Further, the figures for the CC50 in the data set with HepG2 cells (setting [3]) and in the data set on HepG2 cells (setting [4]) were 8600 nM and 4590 nM, respectively. Further, the EC50 is 3040 nM with S. mansoni schistosomula (setting [5]), 2910 nM in the data set on S. mansoni schistosomula (setting [6]) and 2790 nM in the data set with S. mansoni schistosomula (read-out: Motility EC50).
Consider `O=C(Nc1ccc2nc(Nc3ccc(Cl)c(Cl)c3)c(Nc3ccc(Cl)c(Cl)c3)nc2c1)c1ccco1` [Compound 22f], for which the “Change of anti-plasmodial activity relative to compound 22” value with P. falciparum 3D7 is “greatly diminished activity”. Besides, the IC50 is 287 nM in the data set on P. falciparum 3D7, 287 ± 3.3 nM in the data set with P. falciparum 3D7 (setting [2]) and 382 nM in the data set with P. falciparum Dd2. Besides, the “Selectivity index HepG2/3D7” value in the data set on P. falciparum 3D7 was 19.8. The “Selectivity index HepG2/Dd2” value in the data set with P. falciparum Dd2 is on record as 14.9. Moreover, the CC50 was 14800 nM in the data set on HepG2 cells (setting [3]) and 5690 nM in the data set with HepG2 cells (setting [4]). For the same compound, the EC50 with S. mansoni schistosomula (setting [5]) was 1910 nM; in the data set on S. mansoni schistosomula (setting [6]) it was 1950 nM; in the data set on S. mansoni schistosomula (read-out: Motility EC50), 2000 nM.
On to `O=[N+]([O-])c1ccc2nc(Nc3cccc(Cl)c3)c(Nc3cccc(Cl)c3)nc2c1` [Compound 25], for which the “Selectivity index HepG2/3D7” value with P. falciparum 3D7 was determined as 10.1. Moreover, the IC50 with P. falciparum 3D7 (setting [2]) worked out at 57.7 nM; with P. falciparum Dd2 it was 63.4 nM. In the data set with P. falciparum Dd2, the “Selectivity index HepG2/Dd2” value was found to be 9.2. Also, the CC50 with HepG2 cells (setting [3]) is 6760 nM; in the data set with HepG2 cells (setting [4]) it was 580 nM. Moreover, the results for the EC50 in the data set on S. mansoni schistosomula (setting [5]), in the data set on S. mansoni schistosomula (setting [6]) and with S. mansoni schistosomula (read-out: Motility EC50) were 1220 nM, 1260 nM and 1300 nM, respectively.
On to `O=[N+]([O-])c1ccc2nc(Nc3ccc(Cl)cc3)c(Nc3ccc(Cl)cc3)nc2c1` [Compound 26], for which the “Selectivity index HepG2/3D7” value in the data set with P. falciparum 3D7 is given as 4.3. Further, the results for the IC50 with P. falciparum 3D7 (setting [2]) and in the data set on P. falciparum Dd2 were 29.9 nM and 36.8 nM, respectively. Also, the “Selectivity index HepG2/Dd2” value in the data set with P. falciparum Dd2 is listed as 3.5. Further, the CC50 is 13000 nM in the data set on HepG2 cells (setting [3]) and 130 nM in the data set on HepG2 cells (setting [4]). In addition, the EC50 in the data set with S. mansoni schistosomula (setting [5]) was 420 nM; in the data set with S. mansoni schistosomula (setting [6]), 410 nM; in the data set on S. mansoni schistosomula (read-out: Motility EC50), 390 nM.
As for `O=[N+]([O-])c1ccc2nc(Nc3cccc(C(F)(F)F)c3)c(Nc3cccc(C(F)(F)F)c3)nc2c1` [Compound 30], in data set [1], the “Shift in IC50 in compound 22-selected clones versus parental Dd2-Polδ” value was “modest shift with one of the compound 22-resistant clones”. Besides, the “Selectivity index HepG2/3D7” value in the data set on P. falciparum 3D7 came to 67.2. Moreover, the figures for the IC50 in the data set with P. falciparum 3D7 (setting [2]) and with P. falciparum Dd2 were 13.4 nM and 22 nM, respectively. Further, the “Selectivity index HepG2/Dd2” value in the data set on P. falciparum Dd2 amounted to 40.9. Also, the CC50 with HepG2 cells (setting [3]) is 5850 nM; in the data set with HepG2 cells (setting [4]), 900 nM. Further, the EC50 with S. mansoni schistosomula (setting [5]) was 340 nM; with S. mansoni schistosomula (setting [6]), 380 nM; with S. mansoni schistosomula (read-out: Motility EC50) it was 430 nM.
For the compound `O=[N+]([O-])c1ccc2nc(NCCc3ccccc3)c(NCCc3ccccc3)nc2c1` [Compound 37], the “Selectivity index HepG2/3D7” value in the data set with P. falciparum 3D7 was 20.5. Further, the figures for the IC50 in the data set with P. falciparum 3D7 (setting [2]) and in the data set on P. falciparum Dd2 were 220 nM and 264 nM, respectively. Further, the Loss in potency entry with P. falciparum 3D7 (relative to compound 22) is reported as “ten-fold”. Further, the “Selectivity index HepG2/Dd2” value in the data set on P. falciparum Dd2 is recorded as 17.1. Also, the CC50 is 4400 nM in the data set on HepG2 cells (setting [3]) and 4520 nM in the data set with HepG2 cells (setting [4]). Besides, the EC50 was 2200 nM with S. mansoni schistosomula (setting [5]), 1840 nM in the data set on S. mansoni schistosomula (setting [6]) and 1470 nM in the data set on S. mansoni schistosomula (read-out: Motility EC50).
